The target of experiment [1] is T1, Neuronal acetylcholine receptor; alpha4/beta2 (Rattus norvegicus, UniProt P09483+P12390). Nature of the experiment: Inhibition of [3H]cytisine binding to Nicotinic acetylcholine receptor alpha4-beta2 of rat cortical membranes. Type of experiment: cell membranes, Membrane.
Experiment [2] has as its target T1, Neuronal acetylcholine receptor; alpha4/beta2. Nature of the experiment: Inhibition of [3H]nicotine binding to Nicotinic acetylcholine receptor alpha4-beta2 of rat cortical membranes. Type of experiment: cell membranes, Membrane.
Experiment [3] concerns the target Neuronal acetylcholine receptor subunit alpha-7 (Rattus norvegicus, UniProt Q05941). Nature of the experiment: Inhibition of [3H]-BTX binding to Nicotinic acetylcholine receptor alpha-7 of rat hippocampal membranes. Format: cell membranes, Membrane.
The species entered for a further experiment is Mus musculus. Nature of the experiment: Effective concentration in antinociception activity in mouse tail flick test. Format: functional, organism-based. A general note: Hot-plate and tail-flick tests time the reaction to a heat stimulus.
The target of experiment [4] is T1, Neuronal acetylcholine receptor; alpha4/beta2. Nature of the experiment: Inhibition of [3H]epibatidine binding to Nicotinic acetylcholine receptor alpha4-beta2 of rat cortical membranes. Format: cell membranes, Membrane.

The structures appear in SMILES notation.

One may read the Ki as a measure of affinity in units of concentration, obtained from inhibition or displacement. The low end stands for higher affinity, the high end for lower affinity.

T1 sequence (P09483 whole entry): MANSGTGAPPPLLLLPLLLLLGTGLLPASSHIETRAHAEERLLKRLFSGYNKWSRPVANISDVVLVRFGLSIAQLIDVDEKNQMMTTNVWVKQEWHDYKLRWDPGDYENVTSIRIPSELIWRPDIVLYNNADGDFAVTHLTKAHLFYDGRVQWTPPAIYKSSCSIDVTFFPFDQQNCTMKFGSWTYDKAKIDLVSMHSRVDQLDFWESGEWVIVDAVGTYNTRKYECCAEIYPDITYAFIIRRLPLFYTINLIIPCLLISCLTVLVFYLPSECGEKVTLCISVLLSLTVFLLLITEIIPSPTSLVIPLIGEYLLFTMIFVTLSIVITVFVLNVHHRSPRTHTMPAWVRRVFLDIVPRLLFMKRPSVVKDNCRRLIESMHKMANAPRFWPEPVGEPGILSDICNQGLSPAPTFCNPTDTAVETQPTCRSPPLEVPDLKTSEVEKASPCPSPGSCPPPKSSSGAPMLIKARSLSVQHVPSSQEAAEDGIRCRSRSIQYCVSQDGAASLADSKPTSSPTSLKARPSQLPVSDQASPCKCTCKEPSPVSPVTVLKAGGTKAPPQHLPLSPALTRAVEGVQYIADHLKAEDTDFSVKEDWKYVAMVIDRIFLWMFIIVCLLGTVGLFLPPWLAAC
T1 sequence (P12390 whole entry): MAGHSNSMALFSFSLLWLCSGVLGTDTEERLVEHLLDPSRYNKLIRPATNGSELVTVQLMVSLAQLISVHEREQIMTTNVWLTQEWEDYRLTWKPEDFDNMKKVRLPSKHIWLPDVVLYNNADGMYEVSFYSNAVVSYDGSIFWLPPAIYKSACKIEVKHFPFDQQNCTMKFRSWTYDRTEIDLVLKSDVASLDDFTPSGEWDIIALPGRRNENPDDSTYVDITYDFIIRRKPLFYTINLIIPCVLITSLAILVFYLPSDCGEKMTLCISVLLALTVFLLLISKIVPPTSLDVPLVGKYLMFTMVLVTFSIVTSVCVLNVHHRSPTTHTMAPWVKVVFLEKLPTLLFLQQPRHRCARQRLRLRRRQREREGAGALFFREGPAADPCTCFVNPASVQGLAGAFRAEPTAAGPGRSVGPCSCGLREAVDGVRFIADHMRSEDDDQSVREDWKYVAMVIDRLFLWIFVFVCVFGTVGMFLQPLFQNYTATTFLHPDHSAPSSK
Sequence of Neuronal acetylcholine receptor subunit alpha-7 (Q05941 whole entry): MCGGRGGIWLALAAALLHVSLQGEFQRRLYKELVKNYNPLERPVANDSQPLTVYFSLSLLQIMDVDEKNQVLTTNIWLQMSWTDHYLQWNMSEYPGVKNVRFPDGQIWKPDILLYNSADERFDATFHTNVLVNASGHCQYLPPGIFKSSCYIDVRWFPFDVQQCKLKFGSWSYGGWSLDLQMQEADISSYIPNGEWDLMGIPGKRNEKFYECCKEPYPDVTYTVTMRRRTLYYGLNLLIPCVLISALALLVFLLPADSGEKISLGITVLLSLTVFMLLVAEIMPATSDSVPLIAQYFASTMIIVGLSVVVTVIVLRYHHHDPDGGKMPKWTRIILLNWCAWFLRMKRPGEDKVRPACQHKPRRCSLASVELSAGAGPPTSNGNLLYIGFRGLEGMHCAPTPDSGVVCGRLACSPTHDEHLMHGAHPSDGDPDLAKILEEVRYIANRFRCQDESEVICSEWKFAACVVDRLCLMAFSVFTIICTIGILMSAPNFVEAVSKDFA

In experiment [1], `Clc1ccc(C2CC3CNC32)cn1` (stereo not given) displayed a Ki of 3.9 nM.

With `Clc1ccc(C2CC3CNC2C3)cn1` (stereo not given), the Ki in experiment [2] is > 38 nM; in experiment [1], 6.6 nM; in experiment [3], 1600 nM.

The compound `Clc1ccc(C2CC3NCC32)cn1` (stereo not given) gave a Ki in experiment [1] of 5 nM.

Regarding `Clc1ccc([C@@H]2CC3CC2CN3)cn1` (stereo not given in full), the Ki was 0.05 nM in experiment [2] and 6.3 nM in experiment [3].

`Clc1ccc([C@@H]2CC3CNC2C3)cn1` (stereo not given in full): the results for the Ki in experiment [2], in experiment [1] and in experiment [3] were 0.04 nM, 0.03 nM and 3.9 nM, respectively.

Regarding `Clc1ccc(C2CC3CCC2NC3)cn1` (stereo not given), the Ki in experiment [1] is 0.47 nM. This compound had an EC50 in the experiment filed under Mus musculus of 0.04 mg/kg.

For `Clc1ccc(C2CC3CC2CN3)cn1` (stereo not given), the Ki in experiment [2] was > 38 nM; in experiment [1], 30 nM; in experiment [3], 3300 nM.

In turn, `Clc1ccc(C2CCC3CCC2N3)cn1` (stereo not given) gave a Ki in experiment [4] of 1.6 nM.

In experiment [2], `Clc1ccc(C2CC3CCCCC2N3)cn1` (single isomer, unassigned; (-)) registered a Ki of 0.35 nM.

With `Clc1ccc(C2CC3CCCCC2N3)cn1` (stereo in doubt; 16 (+)), the inhibitory constant (Ki) in experiment [2] worked out at 0.13 nM.

As to `Clc1ccc(C2CC3CCCCC2N3)cn1` (stereo in doubt; 17), the affinity in experiment [2] corresponds to a Ki of 1.25 nM.

`Clc1ccc(C2CC3CCC2N3)cn1` (stereo not given) [EPIBATIDINE]: the EC50 in the experiment listed under Mus musculus was determined as 0.01 mg/kg.
